{"source": "patent US9295641B2", "about": "“Compositions containing alpha-2-adrenergic agonist components” (Allergan, Inc., priority 2000, dated 2016)", "key": {"[1]": {"details": "composition including chlorite, equilibrated ten days", "procedure": "Brimonidine tartrate is added to a test tube containing a composition including chlorite. The test tube was allowed to equilibrate for ten days. Samples obtained from the test tube are analyzed by HPLC using a size exclusion column in the presence or absence of a chaotrope, such as urea."}, "[2]": {"details": "for Solubility of Brimonidine tartrate: fifteen days", "procedure": "The effect of pH on the solubility of brimonidine tartrate in liquid formulations with and without SECs was determined. Particularly, the effect of the presence or absence of various concentrations of an exemplary SEC, sodium carboxymethylcellulose (CMC), on the solubility of brimonidine tartrate at various pH conditions was determined. The various concentrations of CMC tested with Brimonidine tartrate were 0%, 0.056%, 0.17%, 0.5%, 1.5% (w/v), see Table III.\nThe samples tested also contained isotonic components, buffer components, and stabilized chlorine dioxide (Purite™), Table III. Sodium carboxymethylcellulose, sodium chloride, potassium chloride, calcium chloride dihydrate, and magnesium chloride hexahydrate were USP grade. Boric acid and sodium borate decahydrate were NF grade.\nEach sample (1 through 5) was brought to various points within a range of pH values from about 7 to about 10. The vials containing the sample solutions were placed on a laboratory rotator and left to equilibrate for fifteen days at 21° C. The sample solutions were filtered using a 25 mm diameter polysulfone cellulose acetate syringe type filter with 0.45 μm pore size. The filtered solutions were assayed for the amount of brimonidine tartrate in solution.\nConventional HPLC and detection techniques were used to detect and determine the concentrations of soluble brimonidine tartrate. Solubility is plotted against pH for each CMC concentration. The experimental data points were fitted to a modified Henderson-Hasselbalch equation using a nonlinear least squares routine (Deltagraph version 4.0 DeltaPoint, Inc.), See FIG. 1."}, "[3]": {"details": "23° C.", "procedure": "The pH-solubility profile of brimonidine tartrate in an aqueous formulation (Ophthalmic Solution) was established in the pH range of about 5 to about 8 at 23° C. Table 1. […] Likewise, the temperature may be varied somewhat, for example, solubility curves may be performed at room temperature.\nThe formulation vehicle was prepared by first dissolving polyvinyl alcohol (PVA) in water. The PVA was added to approximately ⅓ of the required total amount of purified water with constant stirring. The slurry was stirred for 20-30 minutes and then heated to 80-95° C. with constant stirring. The mixture was removed from the heat source within 1 hour after having reached the temperature of 80-90° C. and stirred for an additional 10 minutes to ensure homogeneity (Part I). The other ingredients of the Ophthalmic Solution, except for brimonidine tartrate, were dissolved in a separate container with an additional ⅓ of the required total amount of purified water (Part II). The PVA mixture (Part I) was then quantitatively transferred to Part II using several rinse volumes of purified water. The solution was adjusted to final volume with purified water without pH adjustment.\nBrimonidine tartrate was weighed and transferred to a 10 mL test tube containing 5 mL of the formulation vehicle described above. The pH of each sample was then adjusted to a desired value using dilute sodium hydroxide and/or dilute hydrochloric acid. The samples were placed in a rack on a stir plate and stirred at high speed to achieve uniform mixing for 2 days; a partition was placed between the rack and the stir plate to prevent any heat diffusion from the stir plate to the samples.\nAt the end of two days of stirring, the pH value of each sample was measured, and then approximately 1 mL of each sample was placed in a micro centrifuge tube (polypropylene) and centrifuged at 4,000 rpm for 10 minutes. The supernatant was filtered through a 1 μm filter unit (Whatman, […], PTFE). The first 3-4 drops of the filtrate were discarded; the rest of the filtrate was received and diluted quantitatively with HPLC mobile phase. The dilute sample was then injected directly on the HPLC column (Dupont Zorbax, 250 mm×4.6 mm, 5 μm) for brimonidine tartrate assay in order to quantify the amount of brimonidine tartrate. A control of 0.5% brimonidine tartrate was prepared in the same formulation vehicle at pH 6.3-6.5 and assayed before (untreated) and after (treated) centrifugation and filtration. This was done to evaluate the potential loss of brimonidine tartrate in these two steps of the sample preparation. To ensure reproducibility, the study was repeated on consecutive days."}}, "note": "Where two headings read alike, the source gives them in different places."}
{"molecule": "Brc1c(NC2=NCCN2)ccc2nccnc12", "note": "[5-bromo-6-(2-imidozolin-2-ylamino)quinoxaline]", "values": [{"measurement": "pKa", "setting": "physchem", "value": "~7.4"}]}
{"molecule": "5-bromo-6-(2-imidozolin-2-ylamino)quinoxaline tartrate [Brimonidine tartrate]", "values": [{"measurement": "Formation of dimers, by apparent molecular weights of brimonidine in solution", "setting": "[1]", "value": "a portion of the brimonidine tartrate monomer units have conjugated to form dimmers"}, {"measurement": "Solubility of Brimonidine tartrate", "setting": "[2]; 0% CMC, pH 7.11, 21° C.", "value": 0.2064, "unit": "% w/v"}, {"measurement": "Solubility of Brimonidine tartrate", "setting": "[2]; 0% CMC, pH 7.68, 21° C.", "value": 0.0786, "unit": "% w/v"}, {"measurement": "Solubility of Brimonidine tartrate", "setting": "[2]; 0% CMC, pH 8.50, 21° C.", "value": 0.0286, "unit": "% w/v"}, {"measurement": "Solubility of Brimonidine tartrate", "setting": "[2]; 0% CMC, pH 10.09, 21° C.", "value": 0.0218, "unit": "% w/v"}, {"measurement": "Solubility of Brimonidine tartrate", "setting": "[2]; 0.056% CMC, pH 6.67, 21° C.", "value": 0.9302, "unit": "% w/v"}, {"measurement": "Solubility of Brimonidine tartrate", "setting": "[2]; 0.056% CMC, pH 7.11, 21° C.", "value": 0.2828, "unit": "% w/v"}, {"measurement": "Solubility of Brimonidine tartrate", "setting": "[2]; 0.056% CMC, pH 7.77, 21° C.", "value": 0.0721, "unit": "% w/v"}, {"measurement": "Solubility of Brimonidine tartrate", "setting": "[2]; 0.056% CMC, pH 9.93, 21° C.", "value": 0.0234, "unit": "% w/v"}, {"measurement": "Solubility of Brimonidine tartrate", "setting": "[2]; 0.17% CMC, pH 6.68, 21° C.", "value": 1.4200, "unit": "% w/v"}, {"measurement": "Solubility of Brimonidine tartrate", "setting": "[2]; 0.17% CMC, pH 6.93, 21° C.", "value": 0.7302, "unit": "% w/v"}, {"measurement": "Solubility of Brimonidine tartrate", "setting": "[2]; 0.17% CMC, pH 7.81, 21° C.", "value": 0.0735, "unit": "% w/v"}, {"measurement": "Solubility of Brimonidine tartrate", "setting": "[2]; 0.17% CMC, pH 8.55, 21° C.", "value": 0.0328, "unit": "% w/v"}, {"measurement": "Solubility of Brimonidine tartrate", "setting": "[2]; 0.17% CMC, pH 10.05, 21° C.", "value": 0.0241, "unit": "% w/v"}, {"measurement": "Solubility of Brimonidine tartrate", "setting": "[2]; 0.5% CMC, pH 6.67, 21° C.", "value": 1.4464, "unit": "% w/v"}, {"measurement": "Solubility of Brimonidine tartrate", "setting": "[2]; 0.5% CMC, pH 7.10, 21° C.", "value": 0.3693, "unit": "% w/v"}, {"measurement": "Solubility of Brimonidine tartrate", "setting": "[2]; 0.5% CMC, pH 7.56, 21° C.", "value": 0.1451, "unit": "% w/v"}, {"measurement": "Solubility of Brimonidine tartrate", "setting": "[2]; 0.5% CMC, pH 8.46, 21° C.", "value": 0.0313, "unit": "% w/v"}, {"measurement": "Solubility of Brimonidine tartrate", "setting": "[2]; 0.5% CMC, pH 9.94, 21° C.", "value": 0.0250, "unit": "% w/v"}, {"measurement": "Solubility of Brimonidine tartrate", "setting": "[2]; 1.5% CMC, pH 6.68, 21° C.", "value": 1.4256, "unit": "% w/v"}, {"measurement": "Solubility of Brimonidine tartrate", "setting": "[2]; 1.5% CMC, pH 7.35, 21° C.", "value": 0.1904, "unit": "% w/v"}, {"measurement": "Solubility of Brimonidine tartrate", "setting": "[2]; 1.5% CMC, pH 8.10, 21° C.", "value": 0.0498, "unit": "% w/v"}, {"measurement": "Solubility of Brimonidine tartrate", "setting": "[2]; 1.5% CMC, pH 8.67, 21° C.", "value": 0.0311, "unit": "% w/v"}, {"measurement": "Solubility of Brimonidine tartrate", "setting": "[2]; 1.5% CMC, pH 10.11, 21° C.", "value": 0.0222, "unit": "% w/v"}, {"measurement": "Soluble Brimonidine tartrate (FIG. 1)", "setting": "[2]; pH 7.5, 0% CMC", "value": 1000, "unit": "ppm"}, {"measurement": "Soluble Brimonidine tartrate (FIG. 1)", "setting": "[2]; pH 7.5, 0.056% CMC", "value": 1300, "unit": "ppm"}, {"measurement": "Soluble Brimonidine tartrate (FIG. 1)", "setting": "[2]; pH 7.5, 0.17% CMC", "value": 1300, "unit": "ppm"}, {"measurement": "Soluble Brimonidine tartrate (FIG. 1)", "setting": "[2]; pH 7.5, 0.5% CMC", "value": 1600, "unit": "ppm"}, {"measurement": "Soluble Brimonidine tartrate (FIG. 1)", "setting": "[2]; pH 7.5, 1.5% CMC", "value": "about 1400 ppm"}, {"measurement": "Solubility", "setting": "[3]; STUDY 1, pH 5.55, Ophthalmic Solution, theoretical concentration based on sample weight, solution clear", "value": "> 16.44^b mgml^−1"}, {"measurement": "Solubility", "setting": "[3]; STUDY 1, pH 5.92, Ophthalmic Solution", "value": 13.26, "unit": "mgml^−1"}, {"measurement": "Solubility", "setting": "[3]; STUDY 1, pH 6.14, Ophthalmic Solution", "value": 3.04, "unit": "mgml^−1"}, {"measurement": "Solubility", "setting": "[3]; STUDY 1, pH 6.57, Ophthalmic Solution", "value": 0.755, "unit": "mgml^−1"}, {"measurement": "Solubility", "setting": "[3]; STUDY 1, pH 7.00, Ophthalmic Solution", "value": 0.269, "unit": "mgml^−1"}, {"measurement": "Solubility", "setting": "[3]; STUDY 1, pH 7.45, Ophthalmic Solution", "value": 0.117, "unit": "mgml^−1"}, {"measurement": "Solubility", "setting": "[3]; STUDY 1, pH 7.83, Ophthalmic Solution", "value": 0.062, "unit": "mgml^−1"}, {"measurement": "Solubility", "setting": "[3]; STUDY 2, pH 5.50, Ophthalmic Solution, theoretical concentration based on sample weight, solution clear", "value": "> 20.06^b mgml^−1"}, {"measurement": "Solubility", "setting": "[3]; STUDY 2, pH 5.92, Ophthalmic Solution", "value": 16.08, "unit": "mgml^−1"}, {"measurement": "Solubility", "setting": "[3]; STUDY 2, pH 6.06, Ophthalmic Solution", "value": 5.01, "unit": "mgml^−1"}, {"measurement": "Solubility", "setting": "[3]; STUDY 2, pH 6.90, Ophthalmic Solution", "value": 0.319, "unit": "mgml^−1"}, {"measurement": "Solubility", "setting": "[3]; STUDY 2, pH 7.40, Ophthalmic Solution", "value": 0.119, "unit": "mgml^−1"}, {"measurement": "Solubility", "setting": "[3]; STUDY 2, pH 7.77, Ophthalmic Solution", "value": 0.063, "unit": "mgml^−1"}, {"measurement": "Solubility", "setting": "[3]; STUDY 2, pH 7.86, Ophthalmic Solution", "value": 0.058, "unit": "mgml^−1"}, {"measurement": "Solubility", "setting": "[3]; STUDY 2, pH 7.88, Ophthalmic Solution", "value": 0.054, "unit": "mgml^−1"}]}
